From article PMC6627993 (International Journal of Molecular Sciences, 2019)
Like-named read-outs stand apart in the source and are kept apart here.

Columns and labels:
HDAC in A2780 cells = assay: Whole-cell HDAC inhibition assay; format: cell-based, human; details: 18 h incubation
Protocol: (§1) The cellular HDAC assay was based on an assay published by Heltweg and Jung, Ciossek et al., and Bonfils et al. with minor modifications as described in [20]. Briefly, human cancer cell lines A2780, CaOV3, HEY, Kuramochi, and OVSAHO were seeded in 96-well tissue culture plates (Corning, Kaiserslautern, Germany) at a density of 15,000 c/w, 15,000 c/w, 17,500 c/w, 22,500 c/w, and 50,000 c/w in a total volume of 90 µL of culture medium. After 24 h, cells were incubated for 18 h with increasing concentrations of test compounds. The reaction was started by adding 10 µL of 3 mM Boc-Lys(Ac)-AMC (Bachem, Bubendorf, Switzerland) to reach final concentration of 0.3 mM [61]. The cells were incubated with the Boc-Lys(Ac)-AMC for 3 h under cell culture conditions. […] Fluorescence intensity was measured at excitation of 320 nm and emission of […] in a NOVOstar microplate reader (BMG LabTech, Offenburg, Germany).

HDAC in CaOV3 cells = assay: Whole-cell HDAC inhibition assay; format: cell-based, human; details: 18 h incubation
Protocol: as §1

HDAC in HEY cells = assay: Whole-cell HDAC inhibition assay; format: cell-based, human; details: 18 h incubation
Protocol: as §1

HDAC in Kuramochi cells = assay: Whole-cell HDAC inhibition assay; format: cell-based, human; details: 18 h incubation
Protocol: as §1

HDAC in OVSAHO cells = assay: Whole-cell HDAC inhibition assay; format: cell-based, human; details: 18 h incubation
Protocol: as §1

A2780 [1] = assay: Synergism study (Chou-Talalay, MTT), 48 h HDACi + 72 h HDACi and cisplatin; format: cell-based, human
Protocol: (§2) Concentrations were chosen to achieve a fraction affected (fa; level of cell viability inhibition) between 0.2 and 0.9 in the Chou-Talalay-analysis.
(§3) After 72 h, the cytotoxic effect was determined with a MTT cell viability assay. Calcusyn software 2.1 (Biosoft, Cambridge, UK) was used to calculate the combination index (CI) as a quantitative measure of the degree of drug interaction.

HEY [2] = assay: as above; format: cell-based, human
Protocol: as §2, §3

OVSAHO [3] = assay: as above; format: cell-based, human
Protocol: as §2, §3

[4] = tested on: A2780, CaOV3, HEY, Kuramochi, OVSAHO; assay: Synergism study (Chou-Talalay, MTT), all cell lines; format: cell-based, human; details: 48 h + 72 h; CI < 0.9 indicates synergism
Protocol: as §2, §3

HEY [5] = assay: Measurement of apoptotic nuclei (subG1, flow cytometry); format: cell-based, human; details: HDACi 48 h, then cisplatin IC50 24 h
Protocol: Next, we investigated if the observed synergistic cytotoxic effect was mediated via apoptosis-induction. […] Then, cells were subjected to flow-cytometry-based subG1 analysis.
A2780, CaOV3, HEY, Kuramochi, and OVSAHO cells were seeded at a density of 40,000 c/w, 50,000 c/w, 40,000 c/w, 60,000 c/w, and 100,000 c/w in 24-well plates (Sarstedt, Nürnbrecht, Germany). Cells were treated with entinostat, panobinostat, or nexturastat A and cisplatin alone or in combination for the indicated time points. Supernatant was removed after a centrifugation step and the cells were lysed in 500 µL hypotonic lysis buffer (0.1% sodium citrate, 0.1% Triton X-100, 100 µg/mL PI) at 4 °C in the dark overnight. The percentage of apoptotic nuclei with DNA content in sub-G1 was analyzed by flow cytometry using the CyFlow instrument (Partec, Norderstedt, Germany).

A2780 [6] = details: cited from earlier work
A2780 [7] = assay: MTT cell viability assay
Protocol: (§4) The rate of cell-survival under the action of test substances was evaluated by an improved MTT assay as previously described [20, 31]. […] Incubation was ended after 72 h and cell survival was determined by addition of MTT (Serva, Heidelberg, Germany) solution (5 mg/mL in phosphate buffered saline). The formazan precipitate was dissolved in DMSO (VWR, Langenfeld, Germany). Absorbance was measured at 544 nm and 690 nm in a FLUOstar microplate-reader (BMG LabTech, Offenburg, Germany).

CaOV3 = assay: MTT cell viability assay
Protocol: as §4

HEY [8] = assay: MTT cell viability assay
Protocol: as §4

Kuramochi = assay: MTT cell viability assay
Protocol: as §4

OVSAHO [9] = assay: MTT cell viability assay
Protocol: as §4

[10] = read-out: IC50 (HDAC inhibitory activity)
[11] = cisplatin 1.00 µM + panobinostat 40 nM
[12] = cisplatin 2.00 µM + panobinostat 40 nM
[13] = cisplatin 4.00 µM + panobinostat 40 nM
[14] = read-out: IC50 of cisplatin, cisplatin alone, 72 h

Compound: Cc1[nH]c2ccccc2c1CCNCc1ccc(/C=C/C(=O)NO)cc1 [Panobinostat, panobinostat]
- pIC50 ± SEM (HDAC inhibitory activity) (HDAC in A2780 cells): 7.91 ± 0.06
- IC50 (HDAC in A2780 cells; [10]): 0.0121 µM
- pIC50 ± SEM (HDAC inhibitory activity) (HDAC in CaOV3 cells): 8.10 ± 0.05
- IC50 (HDAC in CaOV3 cells; [10]): 0.00788 µM
- pIC50 ± SEM (HDAC inhibitory activity) (HDAC in HEY cells): 7.87 ± 0.03
- IC50 (HDAC in HEY cells; [10]): 0.0136 µM
- pIC50 ± SEM (HDAC inhibitory activity) (HDAC in Kuramochi cells): 8.01 ± 0.07
- IC50 (HDAC in Kuramochi cells; [10]): 0.00987 µM
- pIC50 ± SEM (HDAC inhibitory activity) (HDAC in OVSAHO cells): 7.64 ± 0.04
- IC50 (HDAC in OVSAHO cells; [10]): 0.0231 µM
- combination index (CI) (A2780 [1]; cisplatin 0.50 µM + panobinostat 10 nM): 0.21
- combination index (CI) (A2780 [1]; cisplatin 0.50 µM + panobinostat 20 nM): 0.10
- combination index (CI) (A2780 [1]; cisplatin 0.50 µM + panobinostat 30 nM): 0.15
- combination index (CI) (A2780 [1]; cisplatin 0.50 µM + panobinostat 40 nM): 0.15
- combination index (CI) (A2780 [1]; cisplatin 1.00 µM + panobinostat 10 nM): 0.25
- combination index (CI) (A2780 [1]; cisplatin 1.00 µM + panobinostat 20 nM): 0.12
- combination index (CI) (A2780 [1]; cisplatin 1.00 µM + panobinostat 30 nM): 0.17
- combination index (CI) (A2780 [1]; [11]): 0.18
- combination index (CI) (A2780 [1]; cisplatin 2.00 µM + panobinostat 10 nM): 0.35
- combination index (CI) (A2780 [1]; cisplatin 2.00 µM + panobinostat 20 nM): 0.16
- combination index (CI) (A2780 [1]; cisplatin 2.00 µM + panobinostat 30 nM): 0.22
- combination index (CI) (A2780 [1]; [12]): 0.21
- combination index (CI) (A2780 [1]; cisplatin 4.00 µM + panobinostat 10 nM): 0.35
- combination index (CI) (A2780 [1]; cisplatin 4.00 µM + panobinostat 20 nM): 0.21
- combination index (CI) (A2780 [1]; cisplatin 4.00 µM + panobinostat 30 nM): 0.27
- combination index (CI) (A2780 [1]; [13]): 0.25
- combination index (CI) (A2780 [1]; cisplatin 6.00 µM + panobinostat 10 nM): 0.29
- combination index (CI) (A2780 [1]; cisplatin 6.00 µM + panobinostat 20 nM): 0.23
- combination index (CI) (A2780 [1]; cisplatin 6.00 µM + panobinostat 30 nM): 0.26
- combination index (CI) (A2780 [1]; cisplatin 6.00 µM + panobinostat 40 nM): 0.26
- combination index (CI) (HEY [2]; cisplatin 0.32 µM + panobinostat 5.0 nM): * (* means fraction affected is less than 0.20)
- combination index (CI) (HEY [2]; cisplatin 0.32 µM + panobinostat 10.0 nM): * (* means fraction affected is less than 0.20)
- combination index (CI) (HEY [2]; cisplatin 0.32 µM + panobinostat 20.0 nM): 0.14
- combination index (CI) (HEY [2]; cisplatin 0.32 µM + panobinostat […]): 0.19
- combination index (CI) (HEY [2]; cisplatin 0.50 µM + panobinostat 5.0 nM): * (* means fraction affected is less than 0.20)
- combination index (CI) (HEY [2]; cisplatin 0.50 µM + panobinostat 10.0 nM): * (* means fraction affected is less than 0.20)
- combination index (CI) (HEY [2]; cisplatin 0.50 µM + panobinostat 20.0 nM): 0.15
- combination index (CI) (HEY [2]; cisplatin 0.50 µM + panobinostat […]): 0.21
- combination index (CI) (HEY [2]; cisplatin 1.00 µM + panobinostat 5.0 nM): * (* means fraction affected is less than 0.20)
- combination index (CI) (HEY [2]; cisplatin 1.00 µM + panobinostat 10.0 nM): * (* means fraction affected is less than 0.20)
- combination index (CI) (HEY [2]; cisplatin 1.00 µM + panobinostat 20.0 nM): 0.16
- combination index (CI) (HEY [2]; cisplatin 1.00 µM + panobinostat […]): 0.25
- combination index (CI) (HEY [2]; cisplatin 2.00 µM + panobinostat 5.0 nM): * (* means fraction affected is less than 0.20)
- combination index (CI) (HEY [2]; cisplatin 2.00 µM + panobinostat 10.0 nM): 0.41
- combination index (CI) (HEY [2]; cisplatin 2.00 µM + panobinostat 20.0 nM): 0.17
- combination index (CI) (HEY [2]; cisplatin 2.00 µM + panobinostat […]): 0.25
- combination index (CI) (HEY [2]; cisplatin 4.00 µM + panobinostat 5.0 nM): 0.51
- combination index (CI) (HEY [2]; cisplatin 4.00 µM + panobinostat 10.0 nM): 0.33
- combination index (CI) (HEY [2]; cisplatin 4.00 µM + panobinostat 20.0 nM): 0.20
- combination index (CI) (HEY [2]; cisplatin 4.00 µM + panobinostat […]): 0.28
- combination index (CI) (OVSAHO [3]; [11]): 0.36
- combination index (CI) (OVSAHO [3]; cisplatin 1.00 µM + panobinostat 50 nM): 0.33
- combination index (CI) (OVSAHO [3]; cisplatin 1.00 µM + panobinostat 60 nM): 0.27
- combination index (CI) (OVSAHO [3]; cisplatin 1.00 µM + panobinostat 70 nM): 0.26
- combination index (CI) (OVSAHO [3]; [12]): 0.25
- combination index (CI) (OVSAHO [3]; cisplatin 2.00 µM + panobinostat 50 nM): 0.23
- combination index (CI) (OVSAHO [3]; cisplatin 2.00 µM + panobinostat 60 nM): 0.21
- combination index (CI) (OVSAHO [3]; cisplatin 2.00 µM + panobinostat 70 nM): 0.21
- combination index (CI) (OVSAHO [3]; cisplatin 3.00 µM + panobinostat 40 nM): 0.24
- combination index (CI) (OVSAHO [3]; cisplatin 3.00 µM + panobinostat 50 nM): 0.22
- combination index (CI) (OVSAHO [3]; cisplatin 3.00 µM + panobinostat 60 nM): 0.21
- combination index (CI) (OVSAHO [3]; cisplatin 3.00 µM + panobinostat 70 nM): 0.21
- combination index (CI) (OVSAHO [3]; [13]): 0.23
- combination index (CI) (OVSAHO [3]; cisplatin 4.00 µM + panobinostat 50 nM): 0.22
- combination index (CI) (OVSAHO [3]; cisplatin 4.00 µM + panobinostat 60 nM): 0.21
- combination index (CI) (OVSAHO [3]; cisplatin 4.00 µM + panobinostat 70 nM): 0.21
- combination index (CI) (OVSAHO [3]; cisplatin 5.00 µM + panobinostat 40 nM): 0.24
- combination index (CI) (OVSAHO [3]; cisplatin 5.00 µM + panobinostat 50 nM): 0.23
- combination index (CI) (OVSAHO [3]; cisplatin 5.00 µM + panobinostat 60 nM): 0.22
- combination index (CI) (OVSAHO [3]; cisplatin 5.00 µM + panobinostat 70 nM): 0.22
- CI-values (interaction with cisplatin) [4]: lower than 0.9
- apoptosis induction, combination with cisplatin versus cisplatin or HDACi alone (HEY [5]): no difference in apoptosis induction

Compound: N.N.[Cl][Pt][Cl] [Cisplatin, cis-diamminedichloridoplatinum(II)]
- IC50-values for cisplatin in previous studies (A2780 [6]): one-digit micromolar range
- IC50 (A2780 [7]; 72 h incubation): 11 µM
- pIC50 ± SEM (A2780 [7]; 72 h incubation): 4.96 ± 0.01
- IC50 (A2780 [7]; [14]): 11 µM
- IC50 (CaOV3; 72 h incubation): 1.44 µM
- pIC50 ± SEM (CaOV3; 72 h incubation): 5.84 ± 0.01
- IC50 (CaOV3; [14]): 1.44 µM
- IC50 (HEY [8]; 72 h incubation): 5.25 µM
- pIC50 ± SEM (HEY [8]; 72 h incubation): 5.28 ± 0.01
- IC50 (HEY [8]; [14]): 5.25 µM
- IC50 (Kuramochi; 72 h incubation): 4.68 µM
- pIC50 ± SEM (Kuramochi; 72 h incubation): 5.33 ± 0.02
- IC50 (Kuramochi; [14]): 4.68 µM
- IC50 (OVSAHO [9]; 72 h incubation): 4.83 µM
- pIC50 ± SEM (OVSAHO [9]; 72 h incubation): 5.32 ± 0.01
- IC50 (OVSAHO [9]; [14]): 4.83 µM
